Test results published in US12594267B2, “Capsid inhibitors for the treatment of HIV” (Gilead Sciences, Inc., priority 2018, dated 2026).
Like-named read-outs stand apart in the source and are kept apart here.

What was measured:
INSTI-resistant viruses = test: Cytopathic antiviral assay in MT-2 cells, INSTI-resistant viruses; assay type: cell-based, HIV-1; settings: Mutant/WT (HXB2D) EC50 ratio, mean ± s.d. of three experiments
Experimental: (§1) The antiviral activity of the compound of Formula (a) was tested against a panel of known HIV-1 mutants resistant to HIV PIs (ATV and DRV), NRTIs (TFV and FTC), NNRTIs (RPV and EFV) or INSTIs (RAL, EVG and DTG) using a cytopathic antiviral assay in MT-2 cells. The compound of Formula (Ia) was fully active against all tested mutants resistant to PIs (Table 11), NRTIs (Table 12), NNRTIs (Table 13) or INSTIs (Table 14).

WT HXB2D = test: Cytopathic antiviral assay in MT-2 cells, wild type HXB2D; assay type: cell-based, HIV-1; settings: Human immunodeficiency virus 1, MT2, read-out: WT HXB2D EC50, MT-2 cells, mean ± s.d. of three experiments in triplicate
Experimental: as §1

NRTI-resistant viruses = assay type: cell-based, HIV-1; settings: Mutant/WT (LAI) EC50 ratio, MT-2 cells, mean ± s.d. of three experiments
Experimental: The antiviral activity of the compound of Formula (a) was tested against a panel of known HIV-1 mutants resistant to HIV PIs (ATV and DRV), NRTIs (TFV and FTC), NNRTIs (RPV and EFV) or INSTIs (RAL, EVG and DTG) using a cytopathic antiviral assay in MT-2 cells.

HIV-2 isolates = test: Antiviral activity against HIV-2 isolates in PHA-stimulated human PBMCs; assay type: cell-based; settings: Human immunodeficiency virus 2, PBMC, 168 h, 7-day infection, RT activity readout, mean of triplicate
Experimental: (§2) The antiretroviral activity of the compound of Formula (Ia) was tested against a panel of 22 HIV-1 clinical isolates of HIV-1 and two HIV-2 isolates in freshly isolated, PHA-stimulated human peripheral blood mononuclear cells (PBMCs). The HIV-1 isolates included representative strains from subtypes A, B, C, D, E, F, G, N, O, AE, and AG. Following a 7-day infection, virus production was determined by measuring reverse transcriptase activity in cell-free culture supernatants.

HIV-1 clinical isolates = test: Antiviral activity against HIV-1 clinical isolates in PHA-stimulated human PBMCs; assay type: cell-based
Experimental: as §2

NNRTI-resistant viruses = test: Cytopathic antiviral assay in MT-2 cells, NNRTI-resistant viruses; assay type: cell-based, HIV-1; settings: Mutant/WT (HXB2D) EC50 ratio, mean ± s.d. of three experiments
Experimental: as §1

Cc1nnc(C(=O)NC(C)(C)c2nc(C(=O)NCc3ccc(F)cc3)c(O)c(=O)n2C)o1 [RAL, raltegravir]
EC50 Fold-Change (INSTI-resistant viruses; E92Q/N155H): >15.6
EC50 Fold-Change (INSTI-resistant viruses; E138K/Q148K): >15.6
EC50 Fold-Change (INSTI-resistant viruses; G140S/Q148R): >15.6
EC50 Fold-Change (INSTI-resistant viruses; N155H/Q148R): 13.9 ± 2.2
EC50 Fold-Change (INSTI-resistant viruses; R263K/M50I): 1.6 ± 1.2
EC50 Fold-Change (INSTI-resistant viruses; Y143R): 10.1 ± 1.2
EC50 (WT HXB2D; INSTI-resistance panel (Table 14)): 6.41 ± 2.15 nM

C[C@H](Cn1cnc2c(N)ncnc21)OCP(=O)(O)O [TFV, tenofovir]
EC50 Fold-Change (NRTI-resistant viruses; 6TAMs): 3.0 ± 1.1
EC50 Fold-Change (NRTI-resistant viruses; K65R): 2.4 ± 1.0
EC50 Fold-Change (NRTI-resistant viruses; M184V): 0.9 ± 1.0

Cc1cn([C@H]2C[C@H](N=[N+]=[N-])[C@@H](CO)O2)c(=O)[nH]c1=O [AZT, zidovudine]
EC50 (HIV-2 isolates; HIV-2 isolate CBL-20): 14.3 nM
EC50 (HIV-2 isolates; HIV-2 isolate CDC310319): 28.8 nM
EC50 (HIV-1 clinical isolates; Human immunodeficiency virus 1, BAL, PBMC, 168 h, read-out: EC50 in human PBMCs, HIV-1 subtype B isolate Ba-L, 7-day infection, RT activity readout, mean of triplicate): 43.2 nM
EC50 (HIV-1 clinical isolates; Human immunodeficiency virus 1, PBMC, 168 h, read-out: EC50 in human PBMCs, HIV-1 CRF01_AE isolate 90TH_CM235, 7-day infection, RT activity readout, mean of triplicate): 10.7 nM
EC50 (HIV-1 clinical isolates; Human immunodeficiency virus 1, PBMC, 168 h, read-out: EC50 in human PBMCs, HIV-1 CRF02_AG isolate 01CM0008BBY, 7-day infection, RT activity readout, mean of triplicate): 8.21 nM
EC50 (HIV-1 clinical isolates; Human immunodeficiency virus 1, PBMC, 168 h, read-out: EC50 in human PBMCs, HIV-1 CRF02_AG isolate 91DJ263, 7-day infection, RT activity readout, mean of triplicate): 34.9 nM
EC50 (HIV-1 clinical isolates; Human immunodeficiency virus 1, PBMC, 168 h, read-out: EC50 in human PBMCs, HIV-1 Group N isolate YBF30, 7-day infection, RT activity readout, mean of triplicate): 8.96 nM
EC50 (HIV-1 clinical isolates; Human immunodeficiency virus 1, PBMC, 168 h, read-out: EC50 in human PBMCs, HIV-1 Group O isolate BCF01, 7-day infection, RT activity readout, mean of triplicate): 10.5 nM
EC50 (HIV-1 clinical isolates; Human immunodeficiency virus 1, PBMC, 168 h, read-out: EC50 in human PBMCs, HIV-1 subtype A isolate 92UG031, 7-day infection, RT activity readout, mean of triplicate): 51.6 nM
EC50 (HIV-1 clinical isolates; Human immunodeficiency virus 1, PBMC, 168 h, read-out: EC50 in human PBMCs, HIV-1 subtype A isolate 92UG037, 7-day infection, RT activity readout, mean of triplicate): 21.7 nM
EC50 (HIV-1 clinical isolates; Human immunodeficiency virus 1, PBMC, 168 h, read-out: EC50 in human PBMCs, HIV-1 subtype B isolate 89BZ_167, 7-day infection, RT activity readout, mean of triplicate): 10.1 nM
EC50 (HIV-1 clinical isolates; Human immunodeficiency virus 1, PBMC, 168 h, read-out: EC50 in human PBMCs, HIV-1 subtype B isolate 90US_873, 7-day infection, RT activity readout, mean of triplicate): 13.2 nM
EC50 (HIV-1 clinical isolates; Human immunodeficiency virus 1, PBMC, 168 h, read-out: EC50 in human PBMCs, HIV-1 subtype B isolate 91US001, 7-day infection, RT activity readout, mean of triplicate): 20.3 nM
EC50 (HIV-1 clinical isolates; Human immunodeficiency virus 1, PBMC, 168 h, read-out: EC50 in human PBMCs, HIV-1 subtype B isolate 91US004, 7-day infection, RT activity readout, mean of triplicate): 19.7 nM
EC50 (HIV-1 clinical isolates; Human immunodeficiency virus 1, PBMC, 168 h, read-out: EC50 in human PBMCs, HIV-1 subtype B isolate 96TH_NP1538, 7-day infection, RT activity readout, mean of triplicate): 4.1 nM
EC50 (HIV-1 clinical isolates; Human immunodeficiency virus 1, PBMC, 168 h, read-out: EC50 in human PBMCs, HIV-1 subtype B isolate JR-CSF, 7-day infection, RT activity readout, mean of triplicate): 4.53 nM
EC50 (HIV-1 clinical isolates; Human immunodeficiency virus 1, PBMC, 168 h, read-out: EC50 in human PBMCs, HIV-1 subtype C isolate 92BR025, 7-day infection, RT activity readout, mean of triplicate): 16.9 nM
EC50 (HIV-1 clinical isolates; Human immunodeficiency virus 1, PBMC, 168 h, read-out: EC50 in human PBMCs, HIV-1 subtype C isolate 98US_MSC5016, 7-day infection, RT activity readout, mean of triplicate): 37.8 nM
EC50 (HIV-1 clinical isolates; Human immunodeficiency virus 1, PBMC, 168 h, read-out: EC50 in human PBMCs, HIV-1 subtype D isolate 92UG001, 7-day infection, RT activity readout, mean of triplicate): 7.29 nM
EC50 (HIV-1 clinical isolates; Human immunodeficiency virus 1, PBMC, 168 h, read-out: EC50 in human PBMCs, HIV-1 subtype D isolate 98UG_57128, 7-day infection, RT activity readout, mean of triplicate): 6.61 nM
EC50 (HIV-1 clinical isolates; Human immunodeficiency virus 1, PBMC, 168 h, read-out: EC50 in human PBMCs, HIV-1 subtype E isolate CMU02, 7-day infection, RT activity readout, mean of triplicate): 8.13 nM
EC50 (HIV-1 clinical isolates; Human immunodeficiency virus 1, PBMC, 168 h, read-out: EC50 in human PBMCs, HIV-1 subtype E isolate CMU08, 7-day infection, RT activity readout, mean of triplicate): 34.1 nM
EC50 (HIV-1 clinical isolates; Human immunodeficiency virus 1, PBMC, 168 h, read-out: EC50 in human PBMCs, HIV-1 subtype F isolate 93BR020, 7-day infection, RT activity readout, mean of triplicate): 25.1 nM
EC50 (HIV-1 clinical isolates; Human immunodeficiency virus 1, PBMC, 168 h, read-out: EC50 in human PBMCs, HIV-1 subtype G isolate JV1083, 7-day infection, RT activity readout, mean of triplicate): 20.5 nM
EC50 (HIV-1 clinical isolates; Human immunodeficiency virus 1, PBMC, read-out: HIV-1 EC50 Mean ± s.d., mean over the 22 HIV-1 clinical isolates, human PBMCs): 19 ± 13.5 nM
EC50 (HIV-1 clinical isolates; Human immunodeficiency virus 1, PBMC, read-out: HIV-1 EC50 Median, median over the 22 HIV-1 clinical isolates, human PBMCs): 15.1 nM
EC50 (HIV-1 clinical isolates; Human immunodeficiency virus 1, PBMC, read-out: HIV-1 EC50 Range, range over the 22 HIV-1 clinical isolates, human PBMCs): 4.1 to 51.6 nM

Cc1cc(/C=C/C#N)cc(C)c1Nc1ccnc(Nc2ccc(C#N)cc2)n1 [RPV, rilpivirine]
EC50 Fold-Change (NNRTI-resistant viruses; K103N): 0.7 ± 0.3
EC50 Fold-Change (NNRTI-resistant viruses; K103N/Y181C): 3.2 ± 1.4
EC50 Fold-Change (NNRTI-resistant viruses; L100I/K103N): 7.8 ± 2.6
EC50 Fold-Change (NNRTI-resistant viruses; Y181C): 5.9 ± 4.3
EC50 Fold-Change (NNRTI-resistant viruses; Y188L): 6.9 ± 1.3
EC50 (WT HXB2D; NNRTI-resistance panel (Table 13)): 0.93 ± 0.23 nM
